Key:
Type in all cases: physicochemical
[1] = Gelation temperature (Tg/Tgel) of diluent and reconstituted formulation, initial and on stability storage
Description: The target for the 2 compartment formulations: • Gelation temperature 30-37 C • Gelation time—less than 5 minutes • Reconstitution time—less than 1 minutes • Viscosity at RT—less than 3000 cps • Reconstituted formulation should be stable for at least 3 hours
To understand the reproducibility of the gelation temperature, multiple batches were prepared and stability was monitored. In addition to this in one of batch, source of Mesalamine is varied to understand its impact on the various physical parameters.
During the stability study, only gelation temperature and the pH of the reconstituted formulation was monitored.
Formulation with 2% Lipoid S 100 has been considered as the lead formula. Reproducible batches with batch size (3-4 Kg) were manufactured and stability was monitored. These batches were packed into different packaging material MoC to understand its impact on the physical properties.

[2] = Stability of one-part formulations stored at 60° C.; details: after preparation of one-part formulations; oxidation in an aqueous solution
[3] = Excipient compatibility study (gelation temperature, constant 15% poloxamer 407); details: change from initial
Description: Excipients were studied for compatibility. Constant—15% poloxamer 407 was used. The compatibility study was carried out with the following excipients: Mesalamine—6.67%; Transcutol—10%; EDTA—0.1%; Polocarbophil—0.25%+Tris—0.15%; TPGS—0.2%; NaCl—0.5%; Sodium metabisulfite—0.2%; PVA 30 CPS—1%; Kollidon 30-1%. The following lipids were investigated: DSPC—0.5%+DPCC—0.5%; Phospholipon 90G—1%; Lipoid S 100-1%; Phospholipon 90H—1%; Lecithin—1%. The following combination of poloxamer grades was also studied Poloxamer 188-1.5, 2.5 and 5%. No or marginal impact (1-2° C. from initial) was found for the following excipients: Transcutol, EDTA, TPGS, NaCl, and PVA. Moderate impact (2-5° C. from initial) was found with Mesalamine. […] No or marginal impact (1-2° C. from initial) was found in combinations with DSPC+DPCC, Phospholipon 90 G, and Lipoid S 100. […] All poloxamer combinations were stable for 28 days.

Cc1cc(C(C)(C)C)c(O)c(C(C)(C)C)c1 [BHT]
effect of additive on gelation temperature [1]: lowers the gelation temperature

Nc1ccc(O)c(C(=O)O)c1 [Mesalamine, 5-aminosalicylic acid]
time to turn brown [2]: ≤ 3 days

O=S([O-])S(=O)(=O)[O-].[Na+].[Na+] [sodium metabisulfite]
impact on gelation temperature [3]: Significant impact
